Source: patent US4824868A, “Propylamine derivatives useful for the treatment of dementia” (Ciba-Geigy Corporation, priority 1987, dated 1989)
Structures can show the parent of a compound that is named as a salt.

Columns and labels:
[1] = tested on: serotonin (5-HT) uptake, rat whole brain synaptosomes; assay: Inhibition of tritiated serotonin uptake into synaptosomes from rat whole brain in vitro; type: biochemical; conditions: for IC50: rat whole brain synaptosomes, 3H-5-HT about 1×10^-7 M, 5 min preincubation, 4 min incubation
Method: (§1) Compounds of the previous examples are tested for their ability to block the uptake of tritiated serotonin into synaptosomal nerve endings from rat whole brain in vitro essentially by the method of Thornburg and Moore as described in Res. Comm. Chem. Pathol. Pharmacol. 5, 81 (1973). The preincubation period of the test compound (added in ethanol solution) with the whole brain synaptosome suspension in Krebs buffer is 5 minutes. The incubation period, following the addition of tritiated serotonin (^3 H-5-HT) to a final concentration of about 1×10^-7 M, is 4 minutes. The concentration of test agent required to inhibit serotonin uptake by 50% of control value i.e. the IC50, is determined graphically and expressed in micromolar concentration.

[2] = tested on: norepinephrine (NE) uptake, rat whole brain synaptosomes; assay: Inhibition of tritiated norepinephrine uptake into synaptosomes from rat whole brain in vitro; type: biochemical; conditions: 3H-NE
Method: as §1
The concentration of test agent required to inhibit norepinephrine (NE) uptake by 50% of the control value, i.e., the IC50 is similarly determined using tritiated norepinephrine (^3 H-NE) and is also expressed in micromolar concentration.

[3] = tested on: serotonin (5-HT) uptake, rat midbrain synaptosomes; assay: Inhibition of 3H-5-HT uptake in rat midbrain synaptosomes in vitro; type: biochemical; conditions: rat midbrain-diencephalon synaptosomes; 5-HT 2.5×10^-9 M; 10 minutes
Method: The inhibition of serotonin (5-HT) uptake indicative of potential antidepressant activity is determined in rat midbrain synaptosomes in vitro as follows:
Synaptosomes from the rat midbrain-diencephalon region are prepared and the uptake of ^3 H-5-HT measured as described by Baumann and Maitre, Naunyn-Schmiedeberg's Arch. Pharmacol. 300, 31 (1977). The concentration of 5-HT in the incubation medium is 2.5×10^-9 M, and the incubation period is 10 minutes. The concentration of a compound of this invention required to inhibit serotonin uptake by 50%, i.e. the IC50, is determined.

[4] = tested on: norepinephrine (NE) uptake, rat midbrain synaptosomes; assay: Inhibition of 3H-NE uptake in rat midbrain synaptosomes in vitro; type: biochemical; conditions: rat midbrain-diencephalon synaptosomes; NE 1×10^-8 M; 20 minutes
Method: The inhibition of norepinephrine (NE) uptake is determined in rat midbrain synaptosomes in vitro as follows:
Synaptosomes from the rat midbrain-diencephalon region are prepared and the uptake of ^3 H-NE is measured as described by Baumann and Maitre, Naunyn-Schmiedeberg's Arch. Pharmacol. 300, 31 (1977). The concenrtration of NE in the incubation medium is 1×10^-8 M, and the incubation period is 20 minutes. The concentration required to inhibit norepinephrine uptake by 50%, i.e. the IC50, is determined.

serotonin (5-HT) uptake = assay: Serotonin (5-HT) uptake inhibition in rats pretreated with compounds; type: in vivo, rat
Method: Serotonin (5-HT) uptake inhibition is also determined in rats pretreated with compounds of the instant invention.

[5] = tested on: reserpine treated rabbits; assay: Reversal of reserpine-induced ptosis in the rabbit; type: in vivo; conditions: reserpine 2 mg/kg i.v. 90 minutes before i.v. infusion of 0.2% drug solution
Method: The serotonin uptake inhibiting or serotonin activating properties of the compounds of the invention are indicative of antidepressant properties as determined by the reversal of reserpine-induced ptosis (i.e. […]) in the rabbit. Rabbits are injected intravenously with 2 mg/kg reserpine 90 minutes before the i.v. infusion of 0.2% drug solution into the ear vein according to the method of J. Mizoule et al. (J. Pharmacol., 8, 3, 269-285, 1977). The complete opening of the eye-lids is taken as a criterion for reversal of the reserpine-induced ptosis. The results are expressed in terms of the mean dose of test compound inducing complete opening of the eye-lids in reserpine treated rabbits.

serotonin uptake = assay: H 75/12 test: inhibition of the serotonin depleting effect of H 75/12 in rat brain; type: in vivo; conditions: for ED50: oral, 30 minutes before H 75/12 (25 mg/kg s.c.), 4 hours
Method: The inhibition of the serotonin depleting effect of 3-hydroxy-4-methyl-α-ethylphenethylamine (H 75/12) in rat brain serves as an indirect indication of serotonin uptake inhibitory activity. (Carlsson, Corrodi, Fuxe and Hoekfelt, Europ. J. Pharmacol. 5, 357, 1969). A diminution of serotonin release by H 75/12 is considered to be due to a serotonin uptake inhibitory effect of the test compound. The compound to be tested is administered orally 30 minutes before H 75/12 (25 mg/kg s.c.) and the animals are decapitated 4 hours thereafter. The brains are immdiately taken out and serotonin is determined as described above. The ED50 represents the dose of the test compound inhibiting the serotonin-depleting effect of H75/12 by 50%.

Which results are given for `COc1cccc(OCC(Cc2ccccc2)CN(C)C)c1` (centres unmarked) [3/1]?
IC50 [1]: 430 nM; IC50 [2]: 4300 nM

How did the IC50 [3] turn out when `CSc1ccc(OCC(Cc2ccccc2)CN(C)C)cc1.O=C(O)C(=O)O` (centres unmarked) [3/2, N,N-dimethyl-2-benzyl-3-(4-methylmercaptophenoxy)-propylamine oxalate] was run?
Its IC50 is ~30 nM.

What about the IC50 [4] of the same molecule?
The IC50 was ~500 nM.

And the “inhibition of 3H-5HT uptake” value (serotonin (5-HT) uptake; 30 mg/kg p.o.)?
Its value is “about 80%”.

What about the “mean dose inducing complete opening of the eye-lids” value [5] of the same molecule?
The value was “about 7.7 mg/kg i.v”.

What about the ED50 (serotonin uptake) of the same molecule?
Its ED50 is ~2.3 mg/kg.

What about the IC50 [1] of the same molecule?
The IC50 was 270 nM.

And the IC50 [2]?
The IC50 was 10800 nM.

`CN(C)CC(COc1ccccc1Cl)Cc1ccccc1` (centres unmarked) [3/3] was tested. Which IC50 [1] did it give?
Its IC50 is 1300 nM.

And the IC50 [2]?
Its IC50 is 5300 nM.

How did the IC50 [1] turn out when `CN(C)CC(COc1ccc(Cl)cc1)Cc1ccccc1` (centres unmarked) [3/4] was run?
The IC50 was 1490 nM.

What about the IC50 [2] of the same molecule?
Its IC50 is 12000 nM.

With `COc1ccc(OCC(Cc2ccccc2)CN2CCCCC2)cc1` (centres unmarked) [3/5] as the molecule, how does the IC50 [1] read?
Its IC50 is 6100 nM.

And the IC50 [2]?
Its IC50 is 39500 nM.

For `CN(C)CC(COc1cccc(Cl)c1)Cc1ccccc1` (centres unmarked) [3/6], which IC50 [1] is on record?
The IC50 was 2700 nM.

And the IC50 [2]?
Its IC50 is 16100 nM.

Which results are given for `Cc1ccc(OCC(Cc2ccccc2)CN(C)C)cc1` (centres unmarked) [3/7]?
IC50 [1]: 1220 nM; IC50 [2]: 12500 nM

What does the source list for `Cc1cccc(OCC(Cc2ccccc2)CN(C)C)c1` (centres unmarked) [3/8]?
IC50 [1]: 1250 nM; IC50 [2]: 3250 nM

How did the IC50 [1] turn out when `COc1ccc(SCC(Cc2ccccc2)CN(C)C)cc1` (centres unmarked) [3/9] was run?
The IC50 was 1530 nM.

What about the IC50 [2] of the same molecule?
The IC50 was 8100 nM.

`CN(C)CC(COc1cccc(C(F)(F)F)c1)Cc1ccccc1` (centres unmarked) [3/10] was tested. Which IC50 [1] did it give?
The IC50 was 2250 nM.

And the IC50 [2]?
Its IC50 is 6900 nM.

For `COc1cccc(SCC(Cc2ccccc2)CN(C)C)c1` (centres unmarked) [3/11], which IC50 [1] is on record?
The IC50 was 1950 nM.

And the IC50 [2]?
The IC50 was 7600 nM.

How did the IC50 [1] turn out when `COc1cc(OC)cc(OCC(Cc2ccccc2)CN(C)C)c1` (centres unmarked) [3/12] was run?
Its IC50 is 1520 nM.

And the IC50 [2]?
Its IC50 is 4300 nM.

How did the IC50 [1] turn out when `C=CCOc1cccc(OCC(Cc2ccccc2)CN(C)C)c1` (centres unmarked) [3/13] was run?
Its IC50 is 590 nM.

And the IC50 [2]?
Its IC50 is 1440 nM.

With `CSc1ccc(OCC(Cc2ccc(Cl)cc2)CN(C)C)cc1` (centres unmarked) [3/14] as the molecule, how does the IC50 [1] read?
The IC50 was 670 nM.

And the IC50 [2]?
The IC50 was 7100 nM.

With `CN(C)CC(COc1ccc(C(F)(F)F)cc1)Cc1cccc(Cl)c1` (centres unmarked) [3/15] as the molecule, how does the IC50 [1] read?
The IC50 was 6000 nM.

And the IC50 [2]?
The IC50 was 32000 nM.

`COc1ccc(OCC(Cc2ccccc2)CN(C)C)cc1` (centres unmarked) [3/16] was tested. Which IC50 [1] did it give?
Its IC50 is 560 nM.

And the IC50 [2]?
The IC50 was 570 nM.

For `CNCC(COc1ccc(OC)cc1)Cc1ccccc1` (centres unmarked) [6/1], which IC50 [1] is on record?
Its IC50 is 440 nM.

And the IC50 [2]?
The IC50 was 1250 nM.

Which IC50 [1] does the source give for `CNCC(COc1ccc(SC)cc1)Cc1ccccc1` (centres unmarked) [6/2, N-methyl-2-benzyl-3-(4-methylthiophenoxy)propylamine] here?
The IC50 was 140 nM.

And the IC50 [2]?
Its IC50 is 2500 nM.

Which IC50 [1] does the source give for `CNCC(COc1ccc(SC)cc1)Cc1cccc(Cl)c1` (centres unmarked) [6/3] here?
The IC50 was 2700 nM.

What about the IC50 [2] of the same molecule?
The IC50 was 11000 nM.

For `CN(C)CC(COc1ccc(C(F)(F)F)cc1)Cc1ccccc1.O=C(O)C(=O)O` (centres unmarked) [Example 1, N,N-dimethyl-2-benzyl-3-(4-trifluoromethylphenoxy)propylamine oxalate], which IC50 [3] is on record?
The IC50 was ~15 nM.

And the IC50 [4]?
The IC50 was ~3000 nM.

What about the “inhibition of 3H-5HT uptake” value (serotonin (5-HT) uptake; 30 mg/kg p.o.) of the same molecule?
Its value is ~60%.

And the “mean dose inducing complete opening of the eye-lids” value [5]?
Its value is ~12.6 mg/kg i.v.

What about the ED50 (serotonin uptake) of the same molecule?
Its ED50 is ~4.5 mg/kg.

What about the IC50 [1] of the same molecule?
Its IC50 is 490 nM.

And the IC50 [2]?
Its IC50 is 15200 nM.

With `CSc1ccc(OCC(Cc2cccc(Cl)c2)CN(C)C)cc1.O=C(O)C(=O)O` (centres unmarked) [Example 2, N,N-dimethyl-2-(3-chlorobenzyl)-3-(4-methylmercaptophenoxy)propylamine oxalate] as the molecule, how does the ED50 (serotonin uptake) read?
Its ED50 is ~1.4 mg/kg.

What about the IC50 [1] of the same molecule?
Its IC50 is 30 nM.

And the IC50 [2]?
Its IC50 is 5000 nM.

Which results are given for `CNCC(COc1ccc(C(F)(F)F)cc1)Cc1ccccc1` (centres unmarked) [Example 4, N-methyl-2-benzyl-3-(4-trifluoromethylphenoxy)propylamine hydrochloride]?
IC50 [1]: 390 nM; IC50 [2]: 12600 nM

With `CNCC(COc1cccc(OC)c1)Cc1ccccc1` (centres unmarked) [Example 5, N-methyl-2-benzyl-3-(3-methoxyphenoxy)propylamine oxalate] as the molecule, how does the IC50 [1] read?
The IC50 was 940 nM.

What about the IC50 [2] of the same molecule?
The IC50 was 1390 nM.

With `CNCC(COc1ccccc1OC)Cc1ccccc1` (centres unmarked) [Example 8, N-methyl-2-benzyl-3-(2-methoxyphenoxy)propylamine oxalate] as the molecule, how does the IC50 [1] read?
The IC50 was 5400 nM.

What about the IC50 [2] of the same molecule?
Its IC50 is 8900 nM.

For `CCN(CC)CC(COc1ccccc1)Cc1ccccc1.Cl` (centres unmarked) [Example 16, N,N-diethyl-2-benzyl-3-phenoxypropylamine hydrochloride, reference compound], which IC50 [3] is on record?
The IC50 was 2200 nM.

And the IC50 [4]?
The IC50 was 2000 nM.

And the “inhibition of the serotonin-depleting effect of H 75/12” value (serotonin uptake; 30 mg/Kg p.o.)?
Its value is 17%.

And the “in vivo serotonin uptake inhibitory activity” value (serotonin uptake; 30 mg/Kg p.o., in words)?
Its value is “no significant in vivo serotonin uptake inhibitory activity”.

And the “selectivity (serotonin vs norepinephrine uptake) in in vitro tests” value ([1]; in vitro, whole brain and midbrain synaptosomes, in words)?
Its value is “no selectivity is seen in in vitro tests”.

What about the IC50 [1] of the same molecule?
The IC50 was 7300 nM.

What about the IC50 [2] of the same molecule?
The IC50 was 3300 nM.

Which results are given for `CNCC(COc1ccc(C(F)(F)F)cc1)Cc1ccccc1.O=C(O)C(=O)O` (centres unmarked) [N-methyl-2-benzyl-3-(4-trifluoromethylphenoxy)-propylamine oxalate]?
IC50 [3]: ~10 nM; IC50 [4]: ~2000 nM; inhibition of 3H-5HT uptake (serotonin (5-HT) uptake; 10 mg/kg p.o.): ~50%; mean dose inducing complete opening of the eye-lids [5]: ~12.9 mg/kg i.v.; ED50 (serotonin uptake): ~1.8 mg/kg
